Measured values taken from US9573899B2, “USP7 inhibitor compounds and methods of use” (Genentech, Inc., priority 2015, dated 2017).

Columns and labels:
[1] = target: T1, USP7, full-length, native C-Terminus (Homo sapiens, UniProt Q93009); experiment: Biochemical USP7 assay with Ubiquitin-Rho110 substrate (USP7_Ub-Rho110 Fluor); conditions: no pre-incubation; 1 hour reaction at room temperature; read-out: USP7 Ub-Rho110 Fluor (IC50)
T1 construct: USP7, full-length, native C-Terminus, 0.2 nM
Procedure: (§1) Biochemical USP7 assays using Ubiquitin-Rho110 as a substrate: The final assay conditions were as follows: The Reaction Buffer consisted of: 50 mM Tris (pH 7.5), 0.01% (v/v) Triton X-100, 2.5 mM Dithiothreitol, 0.1% (w/v) bovine gamma globulin (Sigma cat #G5009-25G); USP7, full-length, native C-Terminus, 0.2 nM; the substrate, Ubiquitin-Rho110 (Boston Biochem cat #U-555), 1 uM. Reactions were carried out for 1 hour at room temperature, in black 20 μL volume polystyrene ProxiPlate 384 F Plus® (PerkinElmer cat #6008260).
(§2) Test compounds, including a control USP7 inhibitor (Ub-aldehyde, Boston Biochem cat #U-201) were serially diluted in DMSO, in 384 well clear V-bottom polypropylene plates (Greiner cat #781280). Compounds in DMSO were diluted 10-fold into Reaction Buffer, to achieve 3-fold the final desired concentration. The substrate, Ubiquitin-Rho110 (Boston Biochem cat #U-555), was prepared at 3 μM (3-fold the final concentration) and 5 ul was dispensed into the reaction plate. 5 ul of the compounds (diluted in Reaction Buffer at 3-fold the final concentration) were transferred to the reaction plate. 5 ul of 0.6 nM USP7 (diluted in Reaction Buffer at 3-fold the final concentration) was transferred to the reaction plate to initiate the reaction. After 1 hour incubation at room temperature the reaction was quenched by the addition of 5 ul of 400 mM acetic acid. The enzymatic product was measured by quantifying the fluorescence signal of cleaved Rhodamine-110 using excitation at 485 nm and emission at 535 nm. When pre-incubation of USP7 with compounds was required, the order of addition of reagents was modified to pre-mix the compounds with USP7 (with a 1 hour incubation period), prior to the addition of the substrate and the initiation of the reaction period. Percentage inhibition values were calculated relative to a no enzyme control and a uninhibited enzyme control. Curve fitting and IC50 calculations were carried out using Genedata Screener software.

[2] = target: T1, USP7, full-length, native C-Terminus; experiment: Biochemical USP7 assay with Ubiquitin-Rho110 substrate, compounds pre-incubated with USP7 (USP7_Ub-Rho preInc); conditions: compounds pre-mixed with USP7, 1 hour incubation, before substrate; read-out: USP7 Ub-Rho preInc (IC50)
Procedure: as §1, §2

T1 sequence (Q93009 whole entry): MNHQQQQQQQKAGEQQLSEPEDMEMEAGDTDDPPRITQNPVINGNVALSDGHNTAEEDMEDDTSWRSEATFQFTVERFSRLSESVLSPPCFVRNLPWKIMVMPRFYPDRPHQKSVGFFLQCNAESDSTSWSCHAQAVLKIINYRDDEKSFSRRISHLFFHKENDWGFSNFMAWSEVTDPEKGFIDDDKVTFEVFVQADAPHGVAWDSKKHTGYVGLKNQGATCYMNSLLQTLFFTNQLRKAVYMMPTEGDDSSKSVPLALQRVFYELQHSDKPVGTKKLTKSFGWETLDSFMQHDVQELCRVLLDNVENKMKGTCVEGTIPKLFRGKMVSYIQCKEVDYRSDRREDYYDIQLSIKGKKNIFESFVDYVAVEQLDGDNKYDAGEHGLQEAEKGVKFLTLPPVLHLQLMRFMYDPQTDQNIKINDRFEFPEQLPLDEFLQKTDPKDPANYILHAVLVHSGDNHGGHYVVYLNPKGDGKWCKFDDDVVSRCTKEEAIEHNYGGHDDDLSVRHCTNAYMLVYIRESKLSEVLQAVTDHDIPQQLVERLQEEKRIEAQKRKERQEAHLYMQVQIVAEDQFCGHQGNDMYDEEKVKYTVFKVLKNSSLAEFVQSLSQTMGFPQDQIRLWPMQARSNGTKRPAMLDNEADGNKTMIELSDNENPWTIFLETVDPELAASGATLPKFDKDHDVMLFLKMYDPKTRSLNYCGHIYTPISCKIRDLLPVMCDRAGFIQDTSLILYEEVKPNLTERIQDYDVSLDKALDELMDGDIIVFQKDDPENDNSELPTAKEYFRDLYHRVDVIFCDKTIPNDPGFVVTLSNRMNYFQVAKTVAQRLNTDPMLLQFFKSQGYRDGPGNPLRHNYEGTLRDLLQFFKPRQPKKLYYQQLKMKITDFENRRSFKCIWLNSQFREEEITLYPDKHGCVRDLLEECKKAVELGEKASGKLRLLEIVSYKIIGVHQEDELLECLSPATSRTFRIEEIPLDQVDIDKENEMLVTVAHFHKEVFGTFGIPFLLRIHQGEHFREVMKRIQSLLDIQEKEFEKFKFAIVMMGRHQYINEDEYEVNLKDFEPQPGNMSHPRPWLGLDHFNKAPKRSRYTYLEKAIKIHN

Structure (SMILES)	IC50 [1]	IC50 [2]
CCc1c(-c2ccc(O)cc2F)cnc(N)c1-c1ccc(O)cc1 [Compound 7, 4-[6-amino-4-ethyl-5-(4-hydroxyphenyl)-3-pyridyl]-3-fluoro-phenol]	4.5 µM	–
COc1c(-c2ccc(O)cc2)cnc(N)c1-c1ccc(O)cc1 [Compound 4, 4-[6-amino-5-(4-hydroxyphenyl)-4-methoxy-3-pyridyl]phenol]	29.1 µM	–
CCc1c(-c2ccc(O)cc2)cnc(N)c1-c1ccc(O)cc1F [Compound 11, 4-[2-amino-4-ethyl-5-(4-hydroxyphenyl)-3-pyridyl]-3-fluoro-phenol]	> 20 µM	–
CCc1c(-c2cccc(NC(C)=O)c2)cnc(N)c1-c1ccc(O)cc1 [Compound 8, N-[3-[6-amino-4-ethyl-5-(4-hydroxyphenyl)-3-pyridyl]phenyl]acetamide]	45 µM	–
CCc1c(-c2ccc(O)cc2)cnc(N)c1-c1cccc(CC#N)c1 [Compound 27, 2-[3-[2-amino-4-ethyl-5-(4-hydroxyphenyl)-3-pyridyl]phenyl]acetonitrile]	–	48.7 µM
CCc1c(-c2cccc(N3CCNCC3)c2)cnc(N)c1-c1ccc(O)cc1 [Compound 42, 4-[2-amino-4-ethyl-5-(3-piperazin-1-ylphenyl)-3-pyridyl]phenol]	–	165 µM
CCc1c(-c2ccc3cn[nH]c3c2)cnc(N)c1-c1ccc(O)cc1 [Compound 84, 4-[2-amino-4-ethyl-5-(1H-indazol-6-yl)-3-pyridyl]phenol]	–	7.2 µM
CCc1c(-c2cccc(N)c2)cnc(N)c1-c1ccc(O)cc1 [Compound 90, 4-[2-amino-5-(3-aminophenyl)-4-ethyl-3-pyridyl]phenol]	–	19.2 µM
CCc1c(-c2ccc(C#N)nc2)cnc(N)c1-c1ccc(O)cc1 [Compound 62, 5-[6-amino-4-ethyl-5-(4-hydroxyphenyl)-3-pyridyl]pyridine-2-carbonitrile]	–	39.2 µM
CCc1c(-c2cccc(CN3CCOCC3)c2)cnc(N)c1-c1ccc(O)cc1 [Compound 82, 4-[2-amino-4-ethyl-5-[3-(morpholinomethyl)phenyl]-3-pyridyl]phenol]	–	18.2 µM
CCc1c(-c2cnc(OC)nc2)cnc(N)c1-c1ccc(O)cc1 [Compound 83, 4-[2-amino-4-ethyl-5-(2-methoxypyrimidin-5-yl)-3-pyridyl]phenol]	–	136 µM
CCc1c(-c2ccc(O)cc2)cnc(NC)c1-c1ccc(O)cc1 [Compound 43, 4-[4-ethyl-5-(4-hydroxyphenyl)-6-(methylamino)-3-pyridyl]phenol]	–	6.8 µM
CCc1c(-c2ccc(O)cc2)cnc(N)c1-c1ccc2[nH]ncc2c1 [Compound 87, 4-[6-amino-4-ethyl-5-(1H-indazol-5-yl)-3-pyridyl]phenol]	–	2.1 µM
CCc1c(-c2cncc(C#N)c2)cnc(N)c1-c1ccc(O)cc1 [Compound 63, 5-[6-amino-4-ethyl-5-(4-hydroxyphenyl)-3-pyridyl]pyridine-3-carbonitrile]	–	11.7 µM
CCc1c(-c2cccc(C(=O)NC(C)C)c2)cnc(N)c1-c1ccc(O)cc1 [Compound 69, 3-[6-amino-4-ethyl-5-(4-hydroxyphenyl)-3-pyridyl]-N-isopropyl-benzamide]	–	> 63.3 µM
CCc1c(-c2ccc(O)cc2)cnc(N)c1-c1cccc(CN2CCOCC2)c1 [Compound 26, 4-[6-amino-4-ethyl-5-[3-(morpholinomethyl)phenyl]-3-pyridyl]phenol]	–	145 µM
CCc1c(-c2ccc(N)cc2)cnc(N)c1-c1ccc(O)cc1 [Compound 91, 4-[2-amino-5-(4-aminophenyl)-4-ethyl-3-pyridyl]phenol]	–	47 µM
CCc1c(-c2ccc(O)cc2)cnc(N)c1-c1ccc(F)c(F)c1 [Compound 18, 4-[6-amino-5-(3,4-difluorophenyl)-4-ethyl-3-pyridyl]phenol]	–	> 20 µM
CCc1c(-c2cccc(NC(C)=O)c2)cnc(N)c1-c1ccc2cn[nH]c2c1 [Compound 14, N-[3-[6-amino-4-ethyl-5-(1H-indazol-6-yl)-3-pyridyl]phenyl]acetamide]	–	136 µM
CCc1c(-c2ccc(C(=O)N3CCOCC3)cc2)cnc(N)c1-c1ccc(O)cc1 [Compound 60, [4-[6-amino-4-ethyl-5-(4-hydroxyphenyl)-3-pyridyl]phenyl]-morpholino-methanone]	–	167 µM

Structure (SMILES)	IC50 [1]	IC50 [2]
CCc1c(-c2ccc(F)cc2)cnc(N)c1-c1ccc(O)cc1 [Compound 34, 4-[2-amino-4-ethyl-5-(4-fluorophenyl)-3-pyridyl]phenol]	–	19.9 µM
CCc1c(-c2cc(F)cc(F)c2)cnc(N)c1-c1ccc(O)cc1 [Compound 76, 4-[2-amino-5-(3,5-difluorophenyl)-4-ethyl-3-pyridyl]phenol]	–	> 20 µM
CCc1c(-c2ccc(O)cc2)cnc(N)c1-c1ccc(NC(=O)OC(C)(C)C)cc1 [Compound 21, tert-butyl N-[4-[2-amino-4-ethyl-5-(4-hydroxyphenyl)-3-pyridyl]phenyl]carbamate]	–	> 20 µM
CCc1c(-c2ccc(Cl)c(C)c2)cnc(N)c1-c1ccc(O)cc1 [Compound 44, 4-[2-amino-5-(4-chloro-3-methyl-phenyl)-4-ethyl-3-pyridyl]phenol]	–	> 20 µM
CCc1c(-c2ccc(O)cc2)cnc(N)c1-c1cncc(C#N)c1 [Compound 29, 5-[2-amino-4-ethyl-5-(4-hydroxyphenyl)-3-pyridyl]pyridine-3-carbonitrile]	–	18.6 µM
CCc1c(-c2ccc(O)cc2)cnc(N)c1-c1ccc(O)c(C#N)c1 [Compound 72, 5-[2-amino-4-ethyl-5-(4-hydroxyphenyl)-3-pyridyl]-2-hydroxy-benzonitrile]	–	12.5 µM
CCc1c(-c2ccc(NC(C)=O)nc2)cnc(N)c1-c1ccc(O)cc1 [Compound 75, N-[5-[6-amino-4-ethyl-5-(4-hydroxyphenyl)-3-pyridyl]-2-pyridyl]acetamide]	–	3.6 µM
CCc1c(-c2ccc(OC)cc2)cnc(N)c1-c1ccc(O)cc1 [Compound 53, 4-[2-amino-4-ethyl-5-(4-methoxyphenyl)-3-pyridyl]phenol]	–	> 20 µM
CCc1c(-c2cccc(C(=O)N(C)C)c2)cnc(N)c1-c1ccc(O)cc1 [Compound 54, 3-[6-amino-4-ethyl-5-(4-hydroxyphenyl)-3-pyridyl]-N,N-dimethyl-benzamide]	–	161 µM
CCc1c(-c2ccccc2F)cnc(N)c1-c1ccc(O)cc1 [Compound 50, 4-[2-amino-4-ethyl-5-(2-fluorophenyl)-3-pyridyl]phenol]	–	14.2 µM
CCc1c(-c2ccc3[nH]c(C)nc3c2)cnc(N)c1-c1ccc(O)cc1 [Compound 86, 4-[2-amino-4-ethyl-5-(2-methyl-1H-benzimidazol-5-yl)-3-pyridyl]phenol]	–	13.5 µM
CCc1c(-c2cccc(CC#N)c2)cnc(N)c1-c1ccc(O)cc1 [Compound 66, 2-[3-[6-amino-4-ethyl-5-(4-hydroxyphenyl)-3-pyridyl]phenyl]acetonitrile]	–	18.3 µM
CCc1c(-c2cccc(C(C)C)c2)cnc(N)c1-c1ccc(O)cc1 [Compound 47, 4-[2-amino-4-ethyl-5-(3-isopropylphenyl)-3-pyridyl]phenol]	–	> 20 µM
CCc1c(-c2ccc(O)cc2)cnc(N)c1-c1ccc(NS(C)(=O)=O)cc1 [Compound 30, N-[4-[2-amino-4-ethyl-5-(4-hydroxyphenyl)-3-pyridyl]phenyl]methanesulfonamide]	–	19.6 µM
CCc1c(-c2ccc(C(=O)NC3CC3)cc2)cnc(N)c1-c1ccc(O)cc1 [Compound 65, 4-[6-amino-4-ethyl-5-(4-hydroxyphenyl)-3-pyridyl]-N-cyclopropyl-benzamide]	–	7.7 µM
CCc1c(-c2ccc(CNS(C)(=O)=O)cc2)cnc(N)c1-c1ccc(O)cc1 [Compound 70, N-[[4-[6-amino-4-ethyl-5-(4-hydroxyphenyl)-3-pyridyl]phenyl]methyl]methanesulfonamide]	–	34.4 µM
CCc1c(-c2ccncc2)cnc(N)c1-c1ccc(O)cc1 [Compound 38, 4-[2-amino-4-ethyl-5-(4-pyridyl)-3-pyridyl]phenol]	–	52.4 µM
CCc1c(-c2cccc(OC)c2)cnc(N)c1-c1ccc(O)cc1 [Compound 52, 4-[2-amino-4-ethyl-5-(3-methoxyphenyl)-3-pyridyl]phenol]	–	50.1 µM
CCc1c(-c2ccc(F)c(F)c2)cnc(N)c1-c1ccc(O)cc1 [Compound 48, 4-[2-amino-5-(3,4-difluorophenyl)-4-ethyl-3-pyridyl]phenol]	–	11.6 µM
CCc1c(-c2ccc(O)cc2)cnc(N)c1-c1cccc(CNC(=O)OC(C)(C)C)c1 [Compound 23, tert-butyl N-[[3-[2-amino-4-ethyl-5-(4-hydroxyphenyl)-3-pyridyl]phenyl]methyl]carbamate]	–	> 6.3 µM
